Values of other authors, collected in US11999963B2, “Pseudomonas protegens and products thereof to control bacterial panicle blight of rice” (priority 2020, dated 2024).

Test system: Pythium ultimum
Settings: Howell & Stipanovic, 1980; Maurhofer et al., 1994

Structure (SMILES): O=C(c1cc(Cl)c(Cl)[nH]1)c1c(O)cccc1O [Pyoluteorin, pyoluteorin]
- activity against Pythium ultimum: had activity
